Measured values: patent US20250230193A1, “CYCLIC COMPOUND HAVING SELECTIVE KRAS INHIBITORY EFFECT ON HRAS AND NRAS” (CHUGAI SEIYAKU KABUSHIKI KAISHA, priority 2022, published 2025)
*1 amine or outer side, *2 acyl side, *3 side chain or, on linkers, in order; H or OH if unused. Where a SMILES comes first, the peptide text is derived from it. Bridges are numbered along the chain shown (N, C = ends). [ ]: non-standard residue; d: D form. The star is where a group is joined. hPhe(3,5-F2-4-CF3) = N[C@@H](CCc1cc(F)c(C(F)(F)F)c(F)c1)C(=O)O; hPhe(3-Cl-4-CF3) = N[C@@H](CCc1ccc(C(F)(F)F)c(Cl)c1)C(=O)O; NPrPhe(4-CF3) = CCCN[C@@H](Cc1ccc(C(F)(F)F)cc1)C(=O)O; X16 = O=C([C@@H](N[*:1])C1CC(F)(F)C1)[*:2]; NMeGly(cPent) = CN[C@H](C(=O)O)C1CCCC1; Pro(4,4-Me2) = CC1(C)CN[C@H](C(=O)O)C1; NMeD = CN[C@@H](CC(=O)O)C(=O)O; NMeL = CN[C@@H](CC(C)C)C(=O)O; Morpholide = C1CN(*)CCO1; NMeA = CN[C@@H](C)C(=O)O; Ac5c = NC1(C(=O)O)CCCC1; Aze = O=C(O)[C@@H]1CCN1; Ac4c = NC1(C(=O)O)CCC1; NEtG = CCNCC(=O)O; Sar = CNCC(=O)O

How the values were obtained:
[1] = molecular target: GDP-bound HRAS wild-type protein (Homo sapiens, UniProt P01112); test: Binding to HRAS by surface plasmon resonance (SPR), Single Cycle Kinetics; details: for HRAS/KRAS (ratio of KD value with respect to HRAS to KD value with respect to KRAS): GDP-bound HRAS wild-type vs GDP-bound KRAS wild-type
GDP-bound HRAS wild-type protein, sequence (P01112 whole entry): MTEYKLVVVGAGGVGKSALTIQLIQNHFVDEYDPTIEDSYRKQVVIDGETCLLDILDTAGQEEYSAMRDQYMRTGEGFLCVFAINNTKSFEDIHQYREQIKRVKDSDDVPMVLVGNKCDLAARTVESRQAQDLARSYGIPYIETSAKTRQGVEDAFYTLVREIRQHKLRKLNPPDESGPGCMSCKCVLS

[2] = molecular target: GDP-bound NRAS wild-type protein (Homo sapiens, UniProt P01111); test: Binding to NRAS by surface plasmon resonance (SPR), Single Cycle Kinetics; details: for NRAS/KRAS (ratio of KD value with respect to NRAS to KD value with respect to KRAS): GDP-bound NRAS wild-type vs GDP-bound KRAS wild-type
GDP-bound NRAS wild-type protein, sequence (P01111 whole entry): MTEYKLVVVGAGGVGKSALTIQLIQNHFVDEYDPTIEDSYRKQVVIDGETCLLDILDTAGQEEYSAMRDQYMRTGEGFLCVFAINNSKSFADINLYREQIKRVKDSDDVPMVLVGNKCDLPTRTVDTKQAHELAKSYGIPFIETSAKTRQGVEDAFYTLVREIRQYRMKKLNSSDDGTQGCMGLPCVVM

**Q.** Which “HRAS/KRAS (ratio of KD value with respect to GDP-bound HRAS wild-type protein to KD value with respect to KRAS)” value ([1]; KD ratio HRAS/KRAS, SPR) does the source give for `CCCN1C(=O)[C@@H]2CCN2C(=O)[C@H](C)N(C)C(=O)[C@H]([C@@H](C)CC)NC(=O)[C@H](CC(C)C)N(C)C(=O)C[C@@H](C(=O)N2CCOCC2)N(C)C(=O)[C@H](C2CCCC2)N(C)C(=O)C2(CCCC2)NC(=O)[C@@H]2CC(C)(C)CN2C(=O)[C@H](CCc2ccc(C(F)(F)F)c(Cl)c2)NC(=O)CN(C)C(=O)[C@@H]1Cc1ccc(C(F)(F)F)cc1` [PP0454] ([NMeL]I[NMeA][Aze][NPrPhe(4-CF3)][Sar][hPhe(3-Cl-4-CF3)][Pro(4,4-Me2)][Ac5c][NMeGly(cPent)][NMeD]-Morpholide; lactam N-11) here?
**A.** C (A compound having a KD ratio of 0.1 or more and less than 3 is denoted as C)

**Q.** What about the “NRAS/KRAS (ratio of KD value with respect to GDP-bound NRAS wild-type protein to KD value with respect to KRAS)” value ([2]; KD ratio NRAS/KRAS, SPR) of the same molecule?
**A.** C (A compound having a KD ratio of 0.1 or more and less than 3 is denoted as C)

**Q.** With `CCC(CC)[C@H]1C(=O)N(C)[C@H](C(=O)N(C)C)CC(=O)N(C)[C@@H](COC)C(=O)N[C@@H]([C@@H](C)CC)C(=O)N(C)CC(=O)N(C)[C@H]2C/C=C\CCN(C2=O)[C@@H](Cc2ccc(C(F)(F)F)cc2)C(=O)N(C)CC(=O)N[C@@H](CCc2cc(F)c(C(F)(F)F)c(F)c2)C(=O)N2CC3(CC3)C[C@H]2C(=O)NC2(CC(C)(C)C2)C(=O)N1C` [PP2961] as the molecule, how does the “HRAS/KRAS (ratio of KD value with respect to GDP-bound HRAS wild-type protein to KD value with respect to KRAS)” value ([1]; KD ratio HRAS/KRAS, class symbols) read?
**A.** A (a compound having 10 or more and less than 20 is denoted as A)

**Q.** And the “NRAS/KRAS (ratio of KD value with respect to GDP-bound NRAS wild-type protein to KD value with respect to KRAS)” value ([2]; KD ratio NRAS/KRAS, class symbols)?
**A.** AA (a compound having 20 or more is denoted as AA)

**Q.** Which results are given for `CCCN1C(=O)CN(C)C(=O)CN(CC)C(=O)[C@H]([C@@H](C)CC)NC(=O)[C@H](CC(C)C)N(C)C(=O)C[C@@H](C(=O)N2CCOCC2)N(C)C(=O)[C@H](C2CCCC2)N(C)C(=O)C2(CCC2)NC(=O)[C@@H]2CCCN2C(=O)[C@H](CCc2ccc(C(F)(F)F)c(Cl)c2)NC(=O)CN(C)C(=O)[C@@H]1Cc1ccc(C(F)(F)F)cc1` [PP0398] ([NMeL]I[NEtG][Sar][NPrPhe(4-CF3)][Sar][hPhe(3-Cl-4-CF3)]P[Ac4c][NMeGly(cPent)][NMeD]-Morpholide; lactam N-11)?
**A.** HRAS/KRAS (ratio of KD for GDP-bound HRAS wild-type to KD for KRAS) ([1]; KD ratio HRAS/KRAS, SPR): C (A compound having a KD ratio of 0.1 or more and less than 3 is denoted as C); NRAS/KRAS (ratio of KD for GDP-bound NRAS wild-type to KD for KRAS) ([2]; KD ratio NRAS/KRAS, SPR): B (a compound having 3 or more and less than 10 is denoted as B)

**Q.** How did the “HRAS/KRAS (ratio of KD value with respect to HRAS to KD value with respect to KRAS)” value ([1]; SPR) turn out when `CC[C@H](C)[C@@H]1NC(=O)[C@H](CC)N(C)C(=O)C[C@@H](C(=O)N(C)C)N(C)C(=O)[C@H](C2CCCC2)N(C)C(=O)C2(CCC2)NC(=O)[C@@H]2C[C@@H](C(F)(F)F)CN2C(=O)[C@H](CCc2cc(F)c(C(F)(F)F)c(F)c2)NC(=O)CN(C)C(=O)[C@H](Cc2ccc(C(F)(F)F)cc2)N2CC/C=C\C[C@@H](C2=O)N(C)C(=O)CN(C)C1=O` [PP1133] was run?
**A.** A (a compound having 10 or more and less than 20 is denoted as A)

**Q.** And the “NRAS/KRAS (ratio of KD value with respect to NRAS to KD value with respect to KRAS)” value ([2]; SPR)?
**A.** A (a compound having 10 or more and less than 20 is denoted as A)

**Q.** How did the “HRAS/KRAS (ratio of KD value with respect to GDP-bound HRAS wild-type protein to KD value with respect to KRAS)” value ([1]; KD ratio HRAS/KRAS, SPR) turn out when `CCCN1C(=O)CN(C)C(=O)CN(C)C(=O)[C@H](C2CC(F)(F)C2)NC(=O)[C@H](CC(C)C)N(C)C(=O)C[C@@H](C(=O)N(C)C)N(C)C(=O)[C@H](C2CCCC2)N(C)C(=O)C2(CCCC2)NC(=O)[C@@H]2CCCN2C(=O)[C@H](CCc2cc(F)c(C(F)(F)F)c(F)c2)NC(=O)CN(C)C(=O)[C@@H]1Cc1ccc(C(F)(F)F)cc1` [PP0748] ([NMeL][X16][Sar][Sar][NPrPhe(4-CF3)][Sar][hPhe(3,5-F2-4-CF3)]P[Ac5c][NMeGly(cPent)][NMeD]-NMe2; lactam N-11) was run?
**A.** B (a compound having 3 or more and less than 10 is denoted as B)

**Q.** What about the “NRAS/KRAS (ratio of KD value with respect to GDP-bound NRAS wild-type protein to KD value with respect to KRAS)” value ([2]; KD ratio NRAS/KRAS, SPR) of the same molecule?
**A.** B (a compound having 3 or more and less than 10 is denoted as B)

**Q.** `CCCN1C(=O)[C@@H]2CCN2C(=O)CN(C)C(=O)[C@H]([C@@H](C)CC)NC(=O)[C@H](CC(C)C)N(C)C(=O)C[C@@H](C(=O)N2CCOCC2)N(C)C(=O)[C@H](C2CCCC2)N(C)C(=O)C2(CCCC2)NC(=O)[C@@H]2CCCN2C(=O)[C@H](CCc2cc(F)c(C(F)(F)F)c(F)c2)NC(=O)CN(C)C(=O)[C@@H]1Cc1ccc(C(F)(F)F)cc1` [PP0789] ([NMeL]I[Sar][Aze][NPrPhe(4-CF3)][Sar][hPhe(3,5-F2-4-CF3)]P[Ac5c][NMeGly(cPent)][NMeD]-Morpholide; lactam N-11) was tested. Which “HRAS/KRAS (ratio of KD value with respect to GDP-bound HRAS wild-type protein to KD value with respect to KRAS)” value ([1]; KD ratio HRAS/KRAS, SPR) did it give?
**A.** B (a compound having 3 or more and less than 10 is denoted as B)

**Q.** And the “NRAS/KRAS (ratio of KD value with respect to GDP-bound NRAS wild-type protein to KD value with respect to KRAS)” value ([2]; KD ratio NRAS/KRAS, SPR)?
**A.** C (A compound having a KD ratio of 0.1 or more and less than 3 is denoted as C)

**Q.** Which “HRAS/KRAS (ratio of KD value with respect to HRAS to KD value with respect to KRAS)” value ([1]; SPR) does the source give for `CCO[C@@H]1C[C@H]2C(=O)NC3(CCC3)C(=O)N(C)[C@@H](C3CCCC3)C(=O)N(C)[C@H](C(=O)N3CCOCC3)CC(=O)N(C)[C@@H](CC(C)C)C(=O)N[C@@H]([C@@H](C)CC)C(=O)N3CC[C@H]3C(=O)N(C)[C@H]3CC(C)=CCN(C3=O)[C@@H](Cc3ccc(C(F)(F)F)cc3)C(=O)N(C)CC(=O)N[C@@H](CCc3cc(F)c(C(F)(F)F)c(F)c3)C(=O)N2C1` [PP1040] here?
**A.** C (A compound having a KD ratio of 0.1 or more and less than 3 is denoted as C)

**Q.** And the “NRAS/KRAS (ratio of KD value with respect to NRAS to KD value with respect to KRAS)” value ([2]; SPR)?
**A.** C (A compound having a KD ratio of 0.1 or more and less than 3 is denoted as C)
